Experimental data from paper PMC4786259 (PLoS ONE, 2016).
“Also recorded” adds a separate entry of the source.

Experiments:
[1] = target: T1, 5-HT6 (Homo sapiens, UniProt P50406); assay: PDSP receptor functional assay; format: cell-based
T1 construct: expressed in transfected cells

[2] = target: β1-AR (Homo sapiens, UniProt P08588); assay: PDSP radioligand competition binding; conditions: radioligand [^3H]CGP12177; read-out: In vitro Affinity
[3] = tested on: male C57BL/6J mice; assay: Catalepsy, inclined screen test; conditions: for latency to movement: nuciferine 10.0 mg/kg i.p.
[4] = target: T2, 5-HT7 (Homo sapiens, UniProt P34969); assay: PDSP radioligand competition binding; conditions: radioligand [^3H]LSD; read-out: In Vitro Affinity
T2 construct: expressed in transfected cells
T2 sequence (P34969 whole entry, species assumed): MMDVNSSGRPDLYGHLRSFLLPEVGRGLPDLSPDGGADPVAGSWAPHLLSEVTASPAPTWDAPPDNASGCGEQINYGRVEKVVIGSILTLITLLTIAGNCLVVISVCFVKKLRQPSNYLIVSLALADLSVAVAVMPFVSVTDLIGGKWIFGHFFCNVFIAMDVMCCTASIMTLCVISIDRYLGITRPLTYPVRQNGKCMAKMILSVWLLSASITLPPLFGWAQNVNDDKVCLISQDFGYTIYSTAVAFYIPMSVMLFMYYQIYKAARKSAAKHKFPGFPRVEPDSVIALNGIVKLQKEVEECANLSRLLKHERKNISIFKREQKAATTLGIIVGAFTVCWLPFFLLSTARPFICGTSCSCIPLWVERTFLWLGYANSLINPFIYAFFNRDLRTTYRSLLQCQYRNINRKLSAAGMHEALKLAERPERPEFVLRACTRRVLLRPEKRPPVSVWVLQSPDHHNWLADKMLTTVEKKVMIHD

[5] = target: T3, 5-HT2C (Homo sapiens, UniProt P28335); assay: PDSP receptor functional assay; format: cell-based
T3 construct: expressed in transfected cells
T3 sequence (P28335 33-458): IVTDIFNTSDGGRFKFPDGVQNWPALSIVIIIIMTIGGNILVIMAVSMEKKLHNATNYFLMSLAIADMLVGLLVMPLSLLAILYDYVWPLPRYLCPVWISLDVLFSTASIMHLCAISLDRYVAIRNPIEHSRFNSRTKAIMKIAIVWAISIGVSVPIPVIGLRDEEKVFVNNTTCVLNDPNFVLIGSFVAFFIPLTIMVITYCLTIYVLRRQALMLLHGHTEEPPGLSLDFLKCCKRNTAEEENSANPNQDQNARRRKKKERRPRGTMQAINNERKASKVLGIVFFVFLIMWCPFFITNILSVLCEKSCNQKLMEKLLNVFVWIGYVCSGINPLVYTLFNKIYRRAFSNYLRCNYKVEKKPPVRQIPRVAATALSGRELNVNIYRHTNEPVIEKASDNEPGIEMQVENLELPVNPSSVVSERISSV

[6] = tested on: C57BL/6J mice; assay: Prepulse inhibition, PCP-disrupted; format: in vivo
[7] = target: AmpC β-lactamase (Escherichia coli, UniProt P00811); assay: AmpC β-lactamase assay counterscreen for colloidal aggregation; conditions: <= 10 μM; data not shown
Sequence of AmpC β-lactamase (P00811 20-377): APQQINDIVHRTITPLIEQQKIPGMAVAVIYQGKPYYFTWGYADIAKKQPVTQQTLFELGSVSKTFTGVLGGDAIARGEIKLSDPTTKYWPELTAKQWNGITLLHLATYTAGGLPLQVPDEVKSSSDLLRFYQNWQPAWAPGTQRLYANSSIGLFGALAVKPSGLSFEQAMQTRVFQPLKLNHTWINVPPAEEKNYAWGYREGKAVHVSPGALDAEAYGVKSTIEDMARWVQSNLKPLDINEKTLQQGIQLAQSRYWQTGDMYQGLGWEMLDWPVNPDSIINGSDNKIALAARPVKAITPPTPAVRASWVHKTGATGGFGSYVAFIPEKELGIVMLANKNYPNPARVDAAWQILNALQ

[8] = Dynamic light scattering to test for colloidal aggregation; format: physicochemical
Procedure: Measurements were made at room temperature using a DynaPro MS/X (Wyatt Technology) with a 55 mW laser at 826.6 nm. The laser power was 100%, and the detector angle was 90° with samples run in duplicate.

[9] = tested on: male C57BL/6J mice; assay: DOI-induced head-twitch response; format: in vivo
[10] = target: T1, 5-HT6; assay: PDSP radioligand competition binding; conditions: radioligand [^3H]LSD; read-out: In Vitro Affinity
[11] = target: T4, D4 (Homo sapiens, UniProt P21917); assay: PDSP receptor functional assay; format: cell-based
T4 construct: expressed in transfected cells
T4 sequence (P21917 1-419): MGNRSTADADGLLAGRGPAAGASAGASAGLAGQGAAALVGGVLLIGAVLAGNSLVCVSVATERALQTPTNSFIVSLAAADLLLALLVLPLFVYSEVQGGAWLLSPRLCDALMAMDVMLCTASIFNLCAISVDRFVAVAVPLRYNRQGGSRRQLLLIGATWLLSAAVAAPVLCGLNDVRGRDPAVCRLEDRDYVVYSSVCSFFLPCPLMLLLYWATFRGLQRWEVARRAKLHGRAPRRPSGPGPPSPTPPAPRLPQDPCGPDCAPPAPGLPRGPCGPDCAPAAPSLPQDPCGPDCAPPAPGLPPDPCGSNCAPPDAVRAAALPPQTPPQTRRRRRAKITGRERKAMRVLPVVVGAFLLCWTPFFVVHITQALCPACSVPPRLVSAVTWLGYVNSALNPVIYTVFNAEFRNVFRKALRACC

[12] = target: T5, 5-HT2A (Homo sapiens, UniProt P28223); assay: PDSP radioligand competition binding; conditions: radioligand [^3H]Ketanserin; read-out: In Vitro Affinity
T5 construct: expressed in transfected cells
T5 sequence (P28223 whole entry, looked up): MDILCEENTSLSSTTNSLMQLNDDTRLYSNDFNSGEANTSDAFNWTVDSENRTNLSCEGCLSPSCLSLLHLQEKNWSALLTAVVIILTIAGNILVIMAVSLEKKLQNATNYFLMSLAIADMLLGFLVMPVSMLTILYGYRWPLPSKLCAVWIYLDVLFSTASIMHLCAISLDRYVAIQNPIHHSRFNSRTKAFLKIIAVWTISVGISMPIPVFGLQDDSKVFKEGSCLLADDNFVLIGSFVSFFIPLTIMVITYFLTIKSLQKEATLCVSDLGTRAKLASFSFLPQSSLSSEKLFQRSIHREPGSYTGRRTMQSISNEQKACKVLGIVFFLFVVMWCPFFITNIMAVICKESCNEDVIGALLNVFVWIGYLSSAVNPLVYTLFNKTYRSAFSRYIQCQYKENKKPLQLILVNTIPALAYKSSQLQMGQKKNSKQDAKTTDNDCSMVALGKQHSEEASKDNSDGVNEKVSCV

[13] = target: β3-AR (Homo sapiens, UniProt P13945); assay: PDSP radioligand competition binding; conditions: radioligand [^3H]CGP12177; read-out: In vitro Affinity
Sequence of β3-AR (P13945 whole entry): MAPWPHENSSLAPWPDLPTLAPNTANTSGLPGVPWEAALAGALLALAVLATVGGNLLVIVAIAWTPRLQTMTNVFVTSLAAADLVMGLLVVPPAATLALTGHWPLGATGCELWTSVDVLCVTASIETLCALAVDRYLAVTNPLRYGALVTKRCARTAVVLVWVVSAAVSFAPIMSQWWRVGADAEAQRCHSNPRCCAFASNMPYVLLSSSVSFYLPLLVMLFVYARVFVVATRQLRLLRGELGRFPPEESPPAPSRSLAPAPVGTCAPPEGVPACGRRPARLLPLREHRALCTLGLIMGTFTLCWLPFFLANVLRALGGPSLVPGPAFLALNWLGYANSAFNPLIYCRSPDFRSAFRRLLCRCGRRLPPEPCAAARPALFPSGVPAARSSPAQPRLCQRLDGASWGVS

[14] = target: T3, 5-HT2C; assay: PDSP radioligand competition binding; conditions: radioligand [^3H]Mesulergine; read-out: In Vitro Affinity
[15] = target: D5 (Homo sapiens, UniProt P21918); assay: PDSP radioligand competition binding; conditions: radioligand [^3H]SCH23390
Sequence of D5 (P21918 whole entry, looked up): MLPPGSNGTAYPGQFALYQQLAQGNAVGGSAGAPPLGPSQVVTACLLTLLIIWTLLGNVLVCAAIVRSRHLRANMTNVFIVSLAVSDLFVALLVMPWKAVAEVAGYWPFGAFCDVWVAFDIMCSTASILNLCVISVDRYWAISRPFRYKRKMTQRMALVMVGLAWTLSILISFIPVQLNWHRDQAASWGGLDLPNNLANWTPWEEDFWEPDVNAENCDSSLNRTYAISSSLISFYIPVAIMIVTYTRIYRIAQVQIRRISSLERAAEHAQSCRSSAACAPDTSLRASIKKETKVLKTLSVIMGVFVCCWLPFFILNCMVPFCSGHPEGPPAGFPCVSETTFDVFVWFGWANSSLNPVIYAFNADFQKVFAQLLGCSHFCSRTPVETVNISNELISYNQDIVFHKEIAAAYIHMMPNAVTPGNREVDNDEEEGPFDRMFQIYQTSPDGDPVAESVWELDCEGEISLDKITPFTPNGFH

[16] = target: T6, 5-HT2B (Homo sapiens, UniProt P41595); assay: PDSP receptor functional assay; format: cell-based
T6 construct: expressed in transfected cells
T6 sequence (P41595 whole entry, species assumed): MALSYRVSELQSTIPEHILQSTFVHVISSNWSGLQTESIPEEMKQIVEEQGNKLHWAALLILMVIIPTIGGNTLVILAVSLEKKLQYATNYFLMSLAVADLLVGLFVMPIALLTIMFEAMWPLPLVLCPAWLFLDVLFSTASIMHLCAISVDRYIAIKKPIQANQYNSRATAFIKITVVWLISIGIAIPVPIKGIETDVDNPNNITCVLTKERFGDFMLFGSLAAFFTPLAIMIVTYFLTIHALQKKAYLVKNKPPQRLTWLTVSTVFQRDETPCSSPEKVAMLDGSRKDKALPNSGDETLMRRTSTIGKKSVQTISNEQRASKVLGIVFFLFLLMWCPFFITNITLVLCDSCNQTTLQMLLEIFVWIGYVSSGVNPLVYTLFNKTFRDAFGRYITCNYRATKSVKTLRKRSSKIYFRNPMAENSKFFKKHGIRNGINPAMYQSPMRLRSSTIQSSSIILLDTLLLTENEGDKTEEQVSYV

[17] = tested on: male NIH Swiss mice; assay: DOI drug discrimination; format: in vivo
[18] = target: H2 (Homo sapiens, UniProt P25021); assay: PDSP radioligand competition binding; conditions: radioligand [^3H]Cimetidine; read-out: In vitro Affinity
Sequence of H2 (P25021 whole entry): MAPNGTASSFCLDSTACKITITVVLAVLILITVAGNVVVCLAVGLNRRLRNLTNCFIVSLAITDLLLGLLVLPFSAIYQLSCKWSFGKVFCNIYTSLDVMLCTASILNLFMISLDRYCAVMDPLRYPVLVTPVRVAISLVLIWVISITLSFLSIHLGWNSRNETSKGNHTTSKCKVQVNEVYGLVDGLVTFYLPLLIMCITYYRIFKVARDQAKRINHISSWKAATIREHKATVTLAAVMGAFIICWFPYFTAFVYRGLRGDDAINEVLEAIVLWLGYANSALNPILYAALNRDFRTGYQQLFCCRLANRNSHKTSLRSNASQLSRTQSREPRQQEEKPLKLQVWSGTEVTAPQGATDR

[19] = target: T7, hVMAT2 (Homo sapiens, UniProt Q05940); assay: Vesicular 3H-DA uptake in vesicles isolated from HEK cells overexpressing VMAT2; format: biochemical
T7 construct: expressed in transfected cells; pcDNA3.1 construct with zeocin resistance
T7 sequence (Q05940 whole entry): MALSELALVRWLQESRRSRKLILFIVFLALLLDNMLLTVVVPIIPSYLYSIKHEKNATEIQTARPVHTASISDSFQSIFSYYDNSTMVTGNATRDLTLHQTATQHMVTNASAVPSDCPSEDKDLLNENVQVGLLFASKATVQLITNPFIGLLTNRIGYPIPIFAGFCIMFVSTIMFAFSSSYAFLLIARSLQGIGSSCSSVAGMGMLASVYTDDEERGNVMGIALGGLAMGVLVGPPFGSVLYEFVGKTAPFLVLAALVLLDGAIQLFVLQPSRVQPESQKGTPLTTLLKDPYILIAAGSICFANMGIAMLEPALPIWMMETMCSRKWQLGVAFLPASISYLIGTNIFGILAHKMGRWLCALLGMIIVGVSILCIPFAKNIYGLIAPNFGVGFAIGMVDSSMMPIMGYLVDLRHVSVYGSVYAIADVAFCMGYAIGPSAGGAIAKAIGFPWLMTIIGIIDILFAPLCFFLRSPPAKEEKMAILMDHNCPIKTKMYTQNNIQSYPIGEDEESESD

[20] = target: MOR (Homo sapiens, UniProt P35372); assay: PDSP radioligand competition binding; conditions: radioligand [^3H]DAMGO; read-out: In vitro Affinity
Sequence of MOR (P35372 whole entry): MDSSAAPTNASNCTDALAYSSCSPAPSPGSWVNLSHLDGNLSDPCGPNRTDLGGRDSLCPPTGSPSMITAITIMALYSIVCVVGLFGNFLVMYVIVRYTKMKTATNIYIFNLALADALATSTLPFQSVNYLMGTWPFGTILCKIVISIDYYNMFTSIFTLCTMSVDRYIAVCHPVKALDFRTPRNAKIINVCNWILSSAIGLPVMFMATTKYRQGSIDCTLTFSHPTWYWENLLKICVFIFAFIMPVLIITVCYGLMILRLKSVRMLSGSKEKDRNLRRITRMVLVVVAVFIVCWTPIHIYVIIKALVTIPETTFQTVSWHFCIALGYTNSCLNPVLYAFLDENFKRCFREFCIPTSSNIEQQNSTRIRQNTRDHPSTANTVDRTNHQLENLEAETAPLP

T1 sequence (P50406 whole entry, species assumed): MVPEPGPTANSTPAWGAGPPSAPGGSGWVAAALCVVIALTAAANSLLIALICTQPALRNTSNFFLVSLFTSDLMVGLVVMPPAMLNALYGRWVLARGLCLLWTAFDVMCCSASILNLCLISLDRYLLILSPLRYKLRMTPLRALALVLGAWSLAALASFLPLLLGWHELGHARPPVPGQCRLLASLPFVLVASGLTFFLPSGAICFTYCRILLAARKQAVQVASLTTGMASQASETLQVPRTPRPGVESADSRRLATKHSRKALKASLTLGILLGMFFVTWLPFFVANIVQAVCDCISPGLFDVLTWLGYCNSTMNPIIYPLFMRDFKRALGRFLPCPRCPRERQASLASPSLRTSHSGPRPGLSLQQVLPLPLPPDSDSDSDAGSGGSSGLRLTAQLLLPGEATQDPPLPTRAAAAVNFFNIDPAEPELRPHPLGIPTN
Sequence of β1-AR (P08588 whole entry): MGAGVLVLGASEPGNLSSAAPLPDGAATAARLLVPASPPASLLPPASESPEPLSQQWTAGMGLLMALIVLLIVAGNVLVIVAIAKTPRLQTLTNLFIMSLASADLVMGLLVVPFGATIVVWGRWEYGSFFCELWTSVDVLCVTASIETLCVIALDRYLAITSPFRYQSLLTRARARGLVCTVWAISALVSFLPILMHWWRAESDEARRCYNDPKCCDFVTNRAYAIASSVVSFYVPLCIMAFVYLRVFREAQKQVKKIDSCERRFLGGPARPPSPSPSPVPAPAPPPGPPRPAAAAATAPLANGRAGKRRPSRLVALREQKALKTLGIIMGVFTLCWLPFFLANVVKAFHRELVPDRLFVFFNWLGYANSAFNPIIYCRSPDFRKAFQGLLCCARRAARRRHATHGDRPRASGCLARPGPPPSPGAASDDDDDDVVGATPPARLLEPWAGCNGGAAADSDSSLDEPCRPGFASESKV

With `COc1cc2c3c(c1OC)-c1ccccc1C[C@H]3N(C)CC2` [nuciferine] the EC50 [1] was 700 nM, the “Function Type” value [1] was “Partial agonist” and the Emax ([1]; read-out: maximal effect) was 17.3%. For the same compound, the Ki [2] was 7150 nM, the catalepsy ([3]; 10.0 mg/kg, any of the time-points examined) was “did not produce catalepsy” and the latency to movement ([3]; 30 min post-injection) was 2.3 ± 2.3 s. The latency to movement ([3]; 60 min post-injection) was 4.7 ± 2.6 s, the Ki [4] was 49.8 nM and the “Function Type” value [5] was “Antagonist”. The IC50 ([5]; 5-HT2C antagonist) was 131 nM, the EC50 ([5]; antagonist) was 131 nM and the “PCP-disrupted PPI” value ([6]; 5 mg/kg i.p. before 6 mg/kg PCP) was “higher PPI than the PCP-vehicle groups”. For the same compound, the “PCP-disrupted PPI” value ([6]; 10 mg/kg i.p. before 6 mg/kg PCP) was “rescued the PCP-disrupted PPI”, the “inhibition of AmpC β-lactamase” value [7] was “did not inhibit” and the “light scattering above background” value ([8]; <= 10 μM, aqueous buffer) was “did not scatter light above background”. For the same compound, the colloidal aggregate formation ([8]; concentrations up to 10 μM) was “does not form aggregates”, the DOI-induced head-twitches ([9]; 1 mg/kg i.p., 15 min prior to 1.0 mg/kg DOI) was “no statistical effect” and the DOI-induced head-twitches ([9]; 3 mg/kg i.p., 15 min prior to 1.0 mg/kg DOI, at 5, 10, 15 and 20 min) was “decreased head-twitches; also recorded: statistically significant (p<0.05) reductions in the numbers of head-twitches”. For the same compound, the DOI-induced head-twitches ([9]; 3 mg/kg i.p., 30 min prior to DOI) was “statistically significant (p<0.05) reductions in the numbers of head-twitches”, the DOI-induced head-twitches ([9]; 3 mg/kg i.p., 45 min prior to DOI) was “failed to show significant alterations in head-twitches” and the DOI-induced head-twitches ([9]; 3 mg/kg i.p., 60 min prior to DOI) was “failed to show significant alterations in head-twitches”. For the same compound, the DOI-induced head-twitches ([9]; 3 mg/kg s.c., 15 min prior to 1.0 mg/kg DOI, at 10, 15 and 20 min) was “attenuated DOI-induced head-twitches”, the DOI-induced head-twitches ([9]; 10 mg/kg i.p., 15 min prior to 1.0 mg/kg DOI, at 5, 10, 15 and 20 min) was “decreased head-twitches” and the Ki [10] was 268 nM. For the same compound, the “Function Type” value [11] was “agonist”, the EC50 ([11]; agonist) was 2000 nM and the Ki [12] was 312 nM. The Ki [13] was 1100 nM, the Ki [14] was 60.5 nM and the “In Vitro Affinity” value [15] was “(neg) [^3H]SCH23390”. For the same compound, the “Function Type” value [16] was “Antagonist”, the IC50 ([16]; 5-HT2B antagonist) was 1000 nM and the EC50 ([16]; antagonist) was 1000 nM. The “substitution of cumulative DOI doses for the DOI training dose” value ([17]; in the presence of 1.0 mg/kg nuciferine) was “partial substitution”, the “substitution of cumulative DOI doses for the DOI training dose” value ([17]; in the presence of 3.0 mg/kg nuciferine) was “no cumulative dose of DOI substituted for the training dose” and the Ki [18] was 1660 nM. The “effect on DA uptake in isolated vesicles” value [19] was “no effect” and the Ki [20] was 9550 nM.
